According to patent publication US4138554A, “7-[D-α-(4-Hydroxy-1,5-naphthyridine-3-carboxamido)-α-phenyl (and p-hydroxyphenyl)acetamido]-3-carbamoyloxymethyl-3-cephem-4-carboxylic acids” (priority 1977, dated 1979):
Read-outs that look alike come from different tables or passages of the source.

Legend:
[1] = test system: P. aeruginosa; assay: MIC by serial two-fold agar dilution (Mueller-Hinton agar), P. aeruginosa, primary screening; type: cell-based; conditions: Pseudomonas aeruginosa, read-out: MIC
Method: (§1) Minimum inhibitory concentrations (MIC) of BB-S520 were determined by serial two-fold agar dilution method using Steers' apparatus on Meuller-Hinton agar plate against 31 test organisms for the primary screening and also against 61 strains of Pseudomonas aeruginosa for the secondary evaluation. The results are shown in Table 1 and Table 2 along with those of BB-S514 and sulbenicillin.
(§2) Minimum inhibitory concentrations (MIC) of cephalosporins in the present study were determined by serial two-fold agar dilution method using Steers' apparatus on Mueller-Hinton agar plate against 31 test organisms for the primary screening and also against 61 strains of Pseudomonas aeruginosa for the secondary evaluation.

[2] = test system: E. coli Juhl; assay: Median curative dose in mice, infection with E. coli Juhl; type: in vivo; conditions: Escherichia coli, sc
Text: (§3) Median Curative Dose in Mgm./Kg.
(§4) Upon Subcutaneous Injection in Mice

[3] = test system: Pseudomonas (6 strains); assay: Mean % relative activity (MIC) vs sulbenicillin, Pseudomonas (6 strains); type: cell-based; conditions: for Mean % Relative Activity (SPBC = 100%): P. aerug. (6 strains)
Method: as §1, §2

[4] = test system: S. aureus; assay: MIC by serial two-fold agar dilution (Mueller-Hinton agar), S. aureus; type: cell-based; conditions: Staphylococcus aureus
Method: as §1, §2

[5] = test system: Klebsiella sp.; assay: MIC by serial two-fold agar dilution (Mueller-Hinton agar), Klebsiella sp.; type: cell-based; conditions: read-out: MIC
Method: as §1, §2

[6] = test system: P. mirabilis; assay: MIC by serial two-fold agar dilution (Mueller-Hinton agar), P. mirabilis; type: cell-based; conditions: Proteus mirabilis, read-out: MIC
Method: as §1, §2

[7] = test system: K. pneumoniae; assay: MIC by serial two-fold agar dilution (Mueller-Hinton agar), K. pneumoniae; type: cell-based; conditions: Klebsiella pneumoniae
Method: as §1, §2

[8] = test system: P. vulgaris; assay: MIC by serial two-fold agar dilution (Mueller-Hinton agar), P. vulgaris; type: cell-based; conditions: Proteus vulgaris, read-out: MIC
Method: as §1, §2

[9] = test system: Ps. aeruginosa A9843; assay: Median curative dose in mice, infection with Ps. aeruginosa; type: in vivo; conditions: Pseudomonas aeruginosa, A9843, sc
Text: as §3, §4

[10] = test system: S. marcescens; assay: MIC by serial two-fold agar dilution (Mueller-Hinton agar), S. marcescens; type: cell-based; conditions: Serratia marcescens, read-out: MIC
Method: as §1, §2

[11] = test system: S. aureus Smith; assay: Median curative dose in mice, infection with S. aureus Smith; type: in vivo; conditions: Staphylococcus aureus, sc
Text: as §3, §4

[12] = test system: Gram-positive (6 strains); assay: Mean % relative activity (MIC) vs sulbenicillin, Gram-positive (6 strains); type: cell-based; conditions: for Mean % Relative Activity (SPBC = 100%): G (+) (6 strains)
Method: as §1, §2

[13] = test system: Gram-negative (19 strains); assay: Mean % relative activity (MIC) vs sulbenicillin, Gram-negative (19 strains); type: cell-based; conditions: for Mean % Relative Activity (SPBC = 100%): G (-) (19 strains)
Method: as §1, §2

[14] = test system: E. cloacae; assay: MIC by serial two-fold agar dilution (Mueller-Hinton agar), E. cloacae; type: cell-based; conditions: Enterobacter cloacae
Method: as §1, §2

[15] = test system: P. morganii; assay: MIC by serial two-fold agar dilution (Mueller-Hinton agar), P. morganii; type: cell-based; conditions: Morganella morganii, read-out: MIC
Method: as §1, §2

[16] = test system: S. enteritidis; assay: MIC by serial two-fold agar dilution (Mueller-Hinton agar), S. enteritidis; type: cell-based; conditions: Salmonella enterica, read-out: MIC
Method: as §1, §2

[17] = test system: E. coli; assay: MIC by serial two-fold agar dilution (Mueller-Hinton agar), E. coli; type: cell-based; conditions: Escherichia coli, read-out: MIC
Method: as §1, §2

[18] = mice, P. aerug. A9843 infection, Table 5, read-out: PD50

SMILES: NC(=O)OCC1=C(C(=O)O)N2C(=O)C(NC(=O)[C@H](NC(=O)c3cnc4cccnc4c3O)c3ccc(O)cc3)C2SC1 (single isomer, unassigned) [BB-S530, Sodium 7-[D-(-)-α-(4-hydroxy-1,5-naphthyridine-3-carboxamido)-α-(p-hydroxyphenyl)acetamido]-3-carbamoyloxymethyl-3-cephem-4-carboxylate]
- MIC ([1]; P. aeruginosa A9843, Table 6): 1.6 µg/mL
- MIC ([1]; P. aeruginosa A9930, Table 6): 0.8 µg/mL
- MIC ([1]; P. aeruginosa A15150, Table 6): 1.6 µg/mL
- MIC ([1]; P. aeruginosa A20229, Table 6): 1.6 µg/mL
- MIC ([1]; P. aeruginosa A20717, Table 6): 3.1 µg/mL
- ED50 ([2]; mice, E. coli Juhl infection, Table 5, read-out: PD50): 1.8 mg/kg
- Mean % Relative Activity (SPBC = 100%) ([3]; Table 5): 1425%
- MIC ([4]; S. aureus BX-1633 A9606, Table 6, read-out: MIC): 3.1 µg/mL
- MIC ([4]; S. aureus Smith A9537, Table 6, read-out: MIC): 1.6 µg/mL
- MIC ([4]; S. aureus Smith A15907, Table 6): 25 µg/mL
- MIC ([4]; S. aureus Smith A20239, Table 6, read-out: MIC): 3.1 µg/mL
- MIC ([4]; S. aureus Smith A20240, Table 6, read-out: MIC): 3.1 µg/mL
- MIC ([4]; S. aureus Smith A20701, Table 6, read-out: MIC): 25 µg/mL
- MIC ([5]; Klebsiella sp. A20452, Table 6): 1.6 µg/mL
- MIC ([6]; P. mirabilis A9900, Table 6): 6.3 µg/mL
- MIC ([7]; K. pneumoniae A9977, Table 6): 1.6 µg/mL
- MIC ([8]; P. vulgaris A9539, Table 6): > 100 µg/mL
- ED50 [9, 18]: 9.3 mg/kg
- MIC ([10]; S. marcescens A20019, Table 6): > 100 µg/mL
- ED50 ([11]; mice, S. aureus Smith infection, Table 5, read-out: PD50): 1.3 mg/kg
- Mean % Relative Activity (SPBC = 100%) ([12]; Table 5): 141%
- Mean % Relative Activity (SPBC = 100%) ([13]; Table 5): 108%
- MIC ([14]; E. cloacae A9656, Table 6): 12.5 µg/mL
- MIC ([14]; E. cloacae A9657, Table 6): 100 µg/mL
- MIC ([14]; E. cloacae A9659, Table 6): 100 µg/mL
- MIC ([15]; P. morganii A9553, Table 6): > 100 µg/mL
- MIC ([16]; S. enteritidis A9531, Table 6): 0.8 µg/mL
- MIC ([17]; E. coli A9435, Table 6): 3.1 µg/mL
- MIC ([17]; E. coli A9844, Table 6): 0.4 µg/mL
- MIC ([17]; E. coli A10664, Table 6): 0.2 µg/mL
- MIC ([17]; E. coli A20366, Table 6): > 100 µg/mL
- MIC ([17]; E. coli A20520, Table 6): 3.1 µg/mL
- MIC ([17]; E. coli A20732, Table 6): 3.1 µg/mL
- MIC ([17]; E. coli A20898, Table 6): 100 µg/mL
- MIC ([17]; E. coli Juhl A15119, Table 6): 1.6 µg/mL
- MIC ([17]; E. coli NIHJ, Table 6): 1.6 µg/mL

SMILES: NC(=O)OCC1=C(C(=O)O)N2C(=O)C(NC(=O)[C@H](NC(=O)c3cnc4cccnc4c3O)c3ccccc3)[C@H]2SC1 (stereo partly drawn) [BB-S520, Sodium 7-[D-α-(4-hydroxy-1,5-naphthyridine-3-carboxamido)-α-phenylacetamido]-3-carbamoyloxymethyl-3-cephem-4-carboxylate]
- MIC ([1]; P. aeruginosa (1st line), Table 1): 1.6 µg/mL
- MIC ([1]; P. aeruginosa (2nd line), Table 1): 3.1 µg/mL
- MIC ([1]; P. aeruginosa (3rd line), Table 1): 3.1 µg/mL
- MIC ([1]; P. aeruginosa (4th line), Table 1): 12.5 µg/mL
- MIC ([1]; P. aeruginosa (5th line), Table 1): 1.6 µg/mL
- MIC ([1]; P. aeruginosa (6th line), Table 1): 1.6 µg/mL
- ED50 ([2]; subcutaneous injection in mice, E. coli Juhl, Table 4, read-out: Median Curative Dose (PD50)): 1.8 mg/kg
- Mean % Relative Activity (SPBC = 100%) ([3]; lot 1, Table 5): 635%
- Mean % Relative Activity (SPBC = 100%) ([3]; lot 2, Table 5): 712%
- Mean % Relative Activity (Sulbenicillin = 100%) ([3]; Pseudomonas (6 strains), from geometric means of MICs in Table 1): 635%
- MIC ([4]; S. aureus BX-1633, Table 1, read-out: MIC): 0.8 µg/mL
- MIC ([4]; S. aureus Smith (1st line), Table 1, read-out: MIC): 0.8 µg/mL
- MIC ([4]; S. aureus Smith (2nd line), Table 1, read-out: MIC): 1.6 µg/mL
- MIC ([4]; S. aureus, unnamed strain (4th S. aureus line), Table 1, read-out: MIC): 25 µg/mL
- MIC ([4]; S. aureus, unnamed strain (5th S. aureus line), Table 1, read-out: MIC): 1.6 µg/mL
- MIC ([4]; S. aureus, unnamed strain (6th S. aureus line), Table 1, read-out: MIC): 50 µg/mL
- MIC ([5]; Klebsiella sp., Table 1): 3.1 µg/mL
- MIC ([6]; P. mirabilis, Table 1): 0.4 µg/mL
- MIC ([7]; K. pneumoniae, Table 1): 1.6 µg/mL
- MIC ([8]; P. vulgaris, Table 1): 100 µg/mL
- ED50 [9, 18]: 37 mg/kg
- ED50 ([9]; subcutaneous injection in mice, Ps. aeruginosa, Table 4, read-out: Median Curative Dose (PD50)): 37 mg/kg
- MIC ([10]; S. marcescens, Table 1): > 100 µg/mL
- ED50 ([11]; subcutaneous injection in mice, S. aureus Smith, Table 4, read-out: Median Curative Dose (PD50)): 0.8 mg/kg
- Mean % Relative Activity (SPBC = 100%) ([12]; lot 1, Table 5): 200%
- Mean % Relative Activity (SPBC = 100%) ([12]; lot 2, Table 5): 141%
- Mean % Relative Activity (Sulbenicillin = 100%) ([12]; Gram-positive (6 strains), from geometric means of MICs in Table 1): 200%
- Mean % Relative Activity (SPBC = 100%) ([13]; lot 1, Table 5): 179%
- Mean % Relative Activity (SPBC = 100%) ([13]; lot 2, Table 5): 108%
- Mean % Relative Activity (Sulbenicillin = 100%) ([13]; Gram-negative (19 strains), from geometric means of MICs in Table 1): 179%
- MIC ([14]; E. cloacae (1st line), Table 1): 12.5 µg/mL
- MIC ([14]; E. cloacae (2nd line), Table 1): 50 µg/mL
- MIC ([14]; E. cloacae (3rd line), Table 1): 25 µg/mL
- MIC ([15]; P. morganii, Table 1): > 100 µg/mL
- MIC ([16]; S. enteritidis, Table 1): 3.1 µg/mL
- MIC ([17]; E. coli Juhl, Table 1): 1.6 µg/mL
- MIC ([17]; E. coli NIHJ, Table 1): 0.05 µg/mL
- MIC ([17]; E. coli, unnamed strain (4th E. coli line), Table 1): 0.8 µg/mL
- MIC ([17]; E. coli, unnamed strain (5th E. coli line), Table 1): 100 µg/mL
- MIC ([17]; E. coli, unnamed strain (6th E. coli line), Table 1): 3.1 µg/mL
- MIC ([17]; E. coli, unnamed strain (7th E. coli line), Table 1): 100 µg/mL
- MIC ([17]; E. coli, unnamed strain (8th E. coli line), Table 1): 3.1 µg/mL
- MIC ([17]; E. coli, unnamed strain (9th E. coli line), Table 1): 0.4 µg/mL
